In general, IC50 refers to the concentration needed to halve the response being measured. The low end stands for greater potency, the high end for weaker potency. As a reminder, the EC50 is the midpoint of the concentration-response curve. The low end stands for an effect from little substance, the high end for a need for much substance.

Where a name gives a salt, the structure may show the parent alone.

One assay has as its target T1, Notch1 (Homo sapiens, UniProt P46531).
T1 construct: pLV[Tet]-Puro-TRE3G>Notch1-ICD; expressed in transfected cells; host or cells: 293A cells
Briefly: Notch1 Reporter Assay (CSL-responsive luciferase, doxycycline-induced Notch-ICD in 293A cells). In kind it is cell-based. The note with it: 25 ng/mL Dox, 24 h, luciferase normalized to cell viability. As to the method:
293A cells expressing 1) pCMV-Tet-On 3G, 2) pLV[Tet]-Puro-TRE3G>Notch1-ICD, 3) pLV[Tet]-Puro-TRE3G>Notch2-ICD, 4) pLV[Tet]-Puro-TRE3G>Notch3-ICD, and 5) pCSL-RElement-Luc were used. When Doxycycline is added, the Tet-ON gene activates expression of hNotch1ICD, which together with endogenous NTC components binds to CSL responsive elements (pCSL-RElement-Luc) and expresses luciferase. 1×10^4 cells are plated in 100 μL (96-well format). 24 h later, compounds (10 mM stock in DMSO) are diluted in DMSO to 200×, then added (5 ul into 1 mL) to cell culture media containing 50 ng/mL Dox. This is then added 1:1 to cells. Final DMSO=0.25%, Dox=25 ng/mL. After 24 h, media is discarded, and cells are lysed in passive lysis buffer (Promega). Cells are rocked at room temperature for 15 min and then lysate is divided for luciferase assay (Luciferase Assay System, Promega) and cell viability (CellTiter Glo 2.0, Promega). Raw luciferase is normalized to cell viability, and then scaled to DMSO wells. Results are analyzed and IC50's are determined in GraphPad by nonlinear regression curve fitting (4 parameter) of dose response curves.
In general terms: A reporter such as luciferase makes a cellular process visible.

In assay [1] the test system is OE33 Esophageal Adenocarcinoma cell line. As to the kind of experiment: OE33 Colony Formation Assay. In kind it is cell-based. The note with it: Homo sapiens, 200 cells/well, compound every 48 hours for 7 days, CellTiter-Glo. The procedure:
OE33 Colony Formation Assay:
The OE33 Esophageal Adenocarcinoma cell line was cultured and plated into 96-well tissue culture plates under sparse conditions (200 cells/well). Test compounds were serially diluted in DMSO and then into culture media (final DMSO concentration=0.1%). Compound/media was then added to cells every 48 hours for a total of 7 days. Clonogenic growth was assessed using the CellTiter-Glo reagent, according to manufacturer (Promega) specifications. Percent inhibition was calculated as the percent of luminescence normalized to control (0.1% DMSO) wells. Nonlinear regression curve fitting was performed using GraphPad Prism software to determine EC50's.
(Cellular ATP, detected with luciferase, serves as a proxy for viable cell number.)

T1 sequence (P46531 1754-2555 limits assumed): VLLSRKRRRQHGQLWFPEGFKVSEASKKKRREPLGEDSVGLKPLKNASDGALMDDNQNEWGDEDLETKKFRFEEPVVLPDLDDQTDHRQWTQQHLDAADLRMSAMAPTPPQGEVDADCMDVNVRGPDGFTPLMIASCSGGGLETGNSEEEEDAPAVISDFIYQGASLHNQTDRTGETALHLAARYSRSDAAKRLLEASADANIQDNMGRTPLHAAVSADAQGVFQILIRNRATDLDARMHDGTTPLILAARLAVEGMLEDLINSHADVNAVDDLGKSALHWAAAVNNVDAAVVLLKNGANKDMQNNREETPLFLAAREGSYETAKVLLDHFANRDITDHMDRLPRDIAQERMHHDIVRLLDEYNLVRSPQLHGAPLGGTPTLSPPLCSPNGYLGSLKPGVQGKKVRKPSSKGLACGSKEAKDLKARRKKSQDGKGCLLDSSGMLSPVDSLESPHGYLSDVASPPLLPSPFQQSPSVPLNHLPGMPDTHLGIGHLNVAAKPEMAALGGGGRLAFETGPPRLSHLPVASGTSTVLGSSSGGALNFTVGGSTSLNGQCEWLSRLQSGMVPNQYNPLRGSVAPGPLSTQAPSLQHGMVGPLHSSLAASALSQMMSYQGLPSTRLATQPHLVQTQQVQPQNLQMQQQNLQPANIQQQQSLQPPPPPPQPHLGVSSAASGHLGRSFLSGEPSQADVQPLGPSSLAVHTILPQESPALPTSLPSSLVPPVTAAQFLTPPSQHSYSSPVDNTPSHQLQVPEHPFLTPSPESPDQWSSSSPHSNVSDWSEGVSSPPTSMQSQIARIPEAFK

Regarding `COc1cc(-c2cc(C(F)(F)F)cc3c2n(C)c(=O)n3CC(=O)Nc2ccn(C)n2)cc(F)c1OCc1nnc[nH]1` [SSTN-509, 2-(4-(4-((4H-1,2,4-triazol-3-yl)methoxy)-3-fluoro-5-methoxyphenyl)-3-methyl-2-oxo-6-(trifluoromethyl)-2,3-dihydro-1H-benzo[d]imidazol-1-yl)-N-(1-methyl-1H-pyrazol-3-yl)acetamide hydrochloride], on Notch1, the half-maximal inhibitory concentration (IC50) was 16.1 µM.

As to `Cn1c(=O)n(CC(=O)Nc2ccc(F)cc2)c2cc(C(F)(F)F)cc(-c3ccc(OCc4nnc[nH]4)c(F)c3)c21` [SSTN-597, 2-(4-(4-((4H-1,2,4-triazol-3-yl)methoxy)-3-fluorophenyl)-3-methyl-2-oxo-6-(trifluoromethyl)-2,3-dihydro-1H-benzo[d]imidazol-1-yl)-N-(4-fluorophenyl)acetamide], at Notch1, the midpoint of inhibition, the IC50, lay at 8.1 µM.

On Notch1, `COc1cc(-c2cc(C(F)(F)F)cc3c2n(C)c(=O)n3CC(=O)Nc2ccc(S(C)(=O)=O)cc2)cc(F)c1OCc1nnc[nH]1` [SSTN-503, 2-(4-(4-((4H-1,2,4-triazol-3-yl)methoxy)-3-fluoro-5-methoxyphenyl)-3-methyl-2-oxo-6-(trifluoromethyl)-2,3-dihydro-1H-benzo[d]imidazol-1-yl)-N-(4-(methylsulfonyl)phenyl)acetamide hydrochloride] returned an IC50 of 12.5 µM. Also, in assay [1], the EC50 came to 8.4 µM.

Turning to `COc1cc(-c2cc(C(F)(F)F)cc3c2n(C)c(=O)n3CC(=O)Nc2cccc(-c3ccccc3)c2)cc(F)c1OCc1nnc[nH]1` [SSTN-546, 2-(4-(4-((4H-1,2,4-triazol-3-yl)methoxy)-3-fluoro-5-methoxyphenyl)-3-methyl-2-oxo-6-(trifluoromethyl)-2,3-dihydro-1H-benzo[d]imidazol-1-yl)-N-([1,1′-biphenyl]-3-yl)acetamide], the IC50 against Notch1 worked out at 4.2 µM. In assay [1], this compound came in with an EC50 of 3.6 µM.

For the compound `COc1cc(-c2cc(C(F)(F)F)cc3c2n(C)c(=O)n3CC(=O)N(C)c2ccc(F)cc2)cc(F)c1OCc1nnc[nH]1` [compound 440, 2-(4-(4-((4H-1,2,4-triazol-3-yl)methoxy)-3-fluoro-5-methoxyphenyl)-3-methyl-2-oxo-6-(trifluoromethyl)-2,3-dihydro-1H-benzo[d]imidazol-1-yl)-N-(4-fluorophenyl)-N-methylacetamide hydrochloride], the IC50 against Notch1 came to 3.1 µM. The compound also showed a half-maximal effective concentration (EC50) in assay [1] of 4.6 µM.

In the case of `COc1cc(-c2cc(C(F)(F)F)cc3c2n(C)c(=O)n3CC(=O)Nc2cncc(C)c2)cc(F)c1OCc1nnc[nH]1` [SSTN-502, 2-(4-(4-((4H-1,2,4-triazol-3-yl)methoxy)-3-fluoro-5-methoxyphenyl)-3-methyl-2-oxo-6-(trifluoromethyl)-2,3-dihydro-1H-benzo[d]imidazol-1-yl)-N-(5-methylpyridin-3-yl)acetamide hydrochloride], inhibition against Notch1 was half-maximal at 12 µM (IC50). This compound also displayed an EC50 in assay [1] of 8 µM.

Take `COc1cc(-c2cc(C)cc3c2n(C)c(=O)n3CC(=O)Nc2ccc(F)cc2)cc(F)c1OCc1nnc[nH]1` [SSTN-606, 2-(4-(4-((4H-1,2,4-triazol-3-yl)methoxy)-3-fluoro-5-methoxyphenyl)-3,6-dimethyl-2-oxo-2,3-dihydro-1H-benzo[d]imidazol-1-yl)-N-(4-fluorophenyl)acetamide hydrochloride salt]: the concentration for half-maximal inhibition (IC50) against Notch1 was determined as 15.3 µM.

As for `COc1cc(-c2cc(C(F)(F)F)cc3c2n(C)c(=O)n3CC(=O)Nc2cccc(S(C)(=O)=O)c2)cc(F)c1OCc1nnc[nH]1` [SSTN-501, 2-(4-(4-((4H-1,2,4-triazol-3-yl)methoxy)-3-fluoro-5-methoxyphenyl)-3-methyl-2-oxo-6-(trifluoromethyl)-2,3-dihydro-1H-benzo[d]imidazol-1-yl)-N-(3-(methylsulfonyl)phenyl)acetamide hydrochloride], at Notch1, 13 µM corresponded to half-maximal inhibition (IC50).

On to `COc1cc(-c2cc(C(F)(F)F)cc3c2n(C)c(=O)n3CC(=O)Nc2cncc(C(F)(F)F)c2)cc(F)c1OCc1nnc[nH]1` [SSTN-614, 2-(4-(4-((4H-1,2,4-triazol-3-yl)methoxy)-3-fluoro-5-methoxyphenyl)-3-methyl-2-oxo-6-(trifluoromethyl)-2,3-dihydro-1H-benzo[d]imidazol-1-yl)-N-(5-(trifluoromethyl)pyridin-3-yl)acetamide], for which the midpoint of inhibition against Notch1, the IC50, lay at 3.4 µM.

Regarding `COc1cc(-c2cc(F)cc3c2n(C)c(=O)n3CC(=O)N(C)c2ccc(F)cc2)cc(F)c1OCc1nnc[nH]1` [compound 425, 2-(4-(4-((4H-1,2,4-triazol-3-yl)methoxy)-3-fluoro-5-methoxyphenyl)-6-fluoro-3-methyl-2-oxo-2,3-dihydro-1H-benzo[d]imidazol-1-yl)-N-(4-fluorophenyl)-N-methylacetamide hydrochloride], on Notch1, 33.5 µM corresponded to half-maximal inhibition (IC50).

In turn, `Cn1c(=O)n(CC(=O)N(Cc2nnc[nH]2)c2ccc(F)cc2)c2cc(C(F)(F)F)cc(-c3ccc(OCc4nnc[nH]4)c(F)c3)c21` [SSTN-592, 2-(4-(4-((4H-1,2,4-triazol-3-yl)methoxy)-3-fluorophenyl)-3-methyl-2-oxo-6-(trifluoromethyl)-2,3-dihydro-1H-benzo[d]imidazol-1-yl)-N-((4H-1,2,4-triazol-3-yl)methyl)-N-(4-fluorophenyl)acetamide] yielded an IC50 on Notch1 of 14.8 µM.

For the compound `COc1cncc(NC(=O)Cn2c(=O)n(C)c3c(-c4cc(F)c(OCc5nnc[nH]5)c(OC)c4)cc(C(F)(F)F)cc32)c1` [SSTN-611, 2-(4-(4-((4H-1,2,4-triazol-3-yl)methoxy)-3-fluoro-5-methoxyphenyl)-3-methyl-2-oxo-6-(trifluoromethyl)-2,3-dihydro-1H-benzo[d]imidazol-1-yl)-N-(5-methoxypyridin-3-yl)acetamide], the IC50 against Notch1 was 20.9 µM.

For `Cn1c(=O)n(CC(=O)Nc2ccc(F)cc2)c2cc(C(F)(F)F)cc(-c3cc(Cl)c(OCc4nnc[nH]4)c(Cl)c3)c21` [SSTN-599, 2-(4-(4-((4H-1,2,4-triazol-3-yl)methoxy)-3,5-dichlorophenyl)-3-methyl-2-oxo-6-(trifluoromethyl)-2,3-dihydro-1H-benzo[d]imidazol-1-yl)-N-(4-fluorophenyl)acetamide], 13.9 µM corresponded to half-maximal inhibition at Notch1 (IC50).

For `COc1cc(-c2cc(C(F)(F)F)cc3c2n(C)c(=O)n3CC(=O)Nc2cccc(C#N)c2)cc(F)c1OCc1nnc[nH]1` [SSTN-545, 2-(4-(4-((4H-1,2,4-triazol-3-yl)methoxy)-3-fluoro-5-methoxyphenyl)-3-methyl-2-oxo-6-(trifluoromethyl)-2,3-dihydro-1H-benzo[d]imidazol-1-yl)-N-(3-cyanophenyl)acetamide], the midpoint of inhibition on Notch1, the IC50, lay at 5.8 µM.

At Notch1, `Cn1c(=O)n(CC(=O)N(Cc2nnc[nH]2)c2ccc(F)cc2)c2cc(C(F)(F)F)cc(-c3cc(Cl)c(OCc4nnc[nH]4)c(Cl)c3)c21` [SSTN-594, 2-(4-(4-((4H-1,2,4-triazol-3-yl)methoxy)-3,5-dichlorophenyl)-3-methyl-2-oxo-6-(trifluoromethyl)-2,3-dihydro-1H-benzo[d]imidazol-1-yl)-N-((4H-1,2,4-triazol-3-yl)methyl)-N-(4-fluorophenyl)acetamide] showed an IC50 of 4.5 µM.

In turn, `COc1cc(-c2cc(F)cc3c2n(C)c(=O)n3CC(=O)N(C)c2ccc(Cl)cc2)cc(F)c1OCc1nc[nH]n1` [compound 384, 2-(4-(4-((1H-1,2,4-triazol-3-yl)methoxy)-3-fluoro-5-methoxyphenyl)-6-fluoro-3-methyl-2-oxo-2,3-dihydro-1H-benzo[d]imidazol-1-yl)-N-(4-chlorophenyl)-N-methylacetamide hydrochloride] displayed a half-maximal inhibitory concentration (IC50) on Notch1 of 14.2 µM.

On Notch1, `COc1cc(-c2cc(C(F)(F)F)cc3c2n(C)c(=O)n3CC(=O)N2CCN(C)CC2)cc(F)c1OCc1nnc[nH]1` [SSTN-544, 4-(4-((4H-1,2,4-triazol-3-yl)methoxy)-3-fluoro-5-methoxyphenyl)-3-methyl-1-(2-(4-methylpiperazin-1-yl)-2-oxoethyl)-6-(trifluoromethyl)-1,3-dihydro-2H-benzo[d]imidazol-2-one] showed an IC50 of 51.1 µM.

In turn, `COc1cc(-c2cc(C(F)(F)F)cc3c2n(C)c(=O)n3CC(=O)Nc2cccc(CN3CCOCC3)c2)cc(F)c1OCc1nnc[nH]1` [SSTN-575, 2-(4-(4-((4H-1,2,4-triazol-3-yl)methoxy)-3-fluoro-5-methoxyphenyl)-3-methyl-2-oxo-6-(trifluoromethyl)-2,3-dihydro-1H-benzo[d]imidazol-1-yl)-N-(3-(morpholinomethyl)phenyl)acetamide] returned an IC50 against Notch1 of 12.5 µM.

Consider `COc1ccc(NC(=O)Cn2c(=O)n(C)c3c(-c4cc(F)c(OCc5nnc[nH]5)c(OC)c4)cc(C(F)(F)F)cc32)cn1` [SSTN-613, 2-(4-(4-((4H-1,2,4-triazol-3-yl)methoxy)-3-fluoro-5-methoxyphenyl)-3-methyl-2-oxo-6-(trifluoromethyl)-2,3-dihydro-1H-benzo[d]imidazol-1-yl)-N-(6-methoxypyridin-3-yl)acetamide], for which the IC50 against Notch1 turned out to be 9.2 µM.

These data come from patent publication US20230183215A1, “Notch Inhibitors and Uses Thereof” (StemSynergy Therapeutics, Inc., priority 2020, published 2023).
